The results in this text go back to patent US20060166867A1, “Novel conjugates of polysaccharides and uses thereof” (priority 2003, published 2006).

Values after ≈ are worked out from the molar mass of the structure shown. Values joined by “and” are separate entries in the source; they are usually repeats but may differ in a detail not shown here. Equal entries are not always repeated. Where two headings read alike, the source gives them in different places. Some results are limits rather than exact numbers.

One data set in a line: in vitro. Format: cell-based. The note with it: human; Table 4; tryphan blue exclusion assay for MT2 cells; read-out: Cytotoxicity. The procedure, abridged: (§1)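 MT2 or cMAGI reporter cells infected with wild-type or resistant HIV-1 at 0.2-0.5 MOI for 4 days at 37° C with varying pAAC concentrations. Infection scored by counting blue-stained cMAGI cells and by microscopic syncytium assessment in MT2; cytotoxicity by trypan blue exclusion, as % dead cells.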

Another data set has as its system VRE faecium. The settings on record: clinical isolate, Table 7.
For another data set, the system named is MT2 cells. Briefly: in vitro. In kind it is cell-based. The settings on record: human. The procedure, abridged:
as §1

In another data set the test system is Strep. Pyogenes (gr. A). Briefly: MIC, broth microdilution. In kind it is cell-based. The settings on record: Streptococcus pyogenes; Gram positive clinical isolate; read-out: Minimum Inhibitory Concentration.
The subject of data set [1] is Enterococcus faecalis B84939-vancomycin^r. Briefly: MIC, broth microdilution. Format: cell-based. The settings on record: Enterococcus faecalis; Gram positive clinical isolate; read-out: Minimum Inhibitory Concentration. Background: Dilution methods test growth across graded concentrations, often in twofold steps.
The next data set relates to P. aeruginosa R17093. Kind of data set: MIC, broth microdilution. The note with it: Gram negative clinical isolate, read-out: Minimum Inhibitory Concentration. Format: cell-based, Pseudomonas aeruginosa.
For data set [2], the system named is Enterococcus faecalis (clinical isolate). Kind of data set: microbe, parasite or virus in culture. The note with it: read-out: Minimum Inhibitory Concentration.
Data set [3] deals with Escherichia coli ATCC 25922. Briefly: microbe, parasite or virus in culture. The note with it: ATCC25922, read-out: Minimum Inhibitory Concentration.
Data set [4] relates to Moraxella catarrhalis ATCC 25238 (Branhamella). Kind of data set: microbe, parasite or virus in culture. The settings on record: ATCC25238, read-out: Minimum Inhibitory Concentration.
The next data set concerns E. Coli-ESBL negative. Kind of data set: microbe, parasite or virus in culture. The note with it: Escherichia coli, read-out: Minimum Inhibitory Concentration.
A further data set has as its system E. Coli-ESBL positive. Briefly: microbe, parasite or virus in culture. The settings on record: Escherichia coli, read-out: Minimum Inhibitory Concentration.
For a further data set, the system named is Serratia marcescens. Kind of data set: microbe, parasite or virus in culture. The note with it: read-out: Minimum Inhibitory Concentration.
Data set [5] concerns P. aeruginosa-gentamicin^r, meropenem^r. Kind of data set: microbe, parasite or virus in culture. The note with it: Pseudomonas aeruginosa, read-out: Minimum Inhibitory Concentration.
Data set [6] relates to A. baumannii-amikacin^s, meropenem^s. Briefly: microbe, parasite or virus in culture. The settings on record: Acinetobacter baumannii, read-out: Minimum Inhibitory Concentration.
Data set [7] concerns A. baumannii-amikacin^r, meropenem^r. Briefly: microbe, parasite or virus in culture. The settings on record: Acinetobacter baumannii, read-out: Minimum Inhibitory Concentration.
Data set [8] deals with Enterobacter cloacae W25161. Kind of data set: microbe, parasite or virus in culture. The note with it: W25161, read-out: Minimum Inhibitory Concentration.
The test system of another data set is A. baumannii R16998. Kind of data set: microbe, parasite or virus in culture. The settings on record: Acinetobacter baumannii, R16998, read-out: Minimum Inhibitory Concentration.
The subject of the next data set is A. baumannii E11436. Kind of data set: MIC, broth microdilution. Format: cell-based, Acinetobacter baumannii. The note with it: clinical isolate, Table 7. Here is the method: Minimal Inhibition Concentration (MIC) measurements: The Minimal Inhibitory Concentration (MIC) was generally determined by the Broth Microdilution method (based on the protocol described in Clinical and Laboratory Standard Institute (CLSI) NCCLS (2003) M7-A6), as follows:
A stock solution of each of the tested compounds was prepared by diluting the compound to a 2,560 μg/ml concentration with an appropriate solvent. The stock solution was then serially 2-fold diluted in 96-well microdilution trays using Cation-Adjusted Mueller-Hinton Broth (CAMHB) until reaching the desired range of concentrations, whereas each well contained double the final working concentration. Each row further had one growth control well (medium+inoculum only), and one sterility control well (medium+tested compound). Plates were stored at −70° C. until used.
The tested microorganisms were used as fresh overnight cultures on blood agar (for gram-positive organisms) or MacConkey agar (for gram-negatives). A standardized inoculum suspension was prepared by the direct colony suspension method, using sterile saline (equivalent to a 0.5 McFarland standard).
Thus, 50 μl of the inoculum suspension were added to each tested well (except for the sterility control well), and […] was performed during 18-24 hours (depending on the tested microorganism or compound) at 35° C.

Turning to `CC(=O)N[C@H](CCCNC(=N)N)C(=O)N[C@H](CCCNC(=N)N)C(=O)N[C@H](CCCNC(=N)N)C(=O)N[C@H](CCCNC(=N)N)C(=O)N[C@H](CCCNC(=N)N)C(=O)N[C@H](CCCNC(=N)N)C(=O)N[C@H](CCCNC(=N)N)C(=O)N[C@H](CCCNC(=N)N)C(=O)N[C@H](CCCNC(=N)N)C(=O)O` [Compound 12, D-Arg-9-mer-NHAc], the CC50 in “in vitro” came to 150 µM. Besides, the “Minimum Inhibitory Concentration” value in the data set with VRE faecium was greater than 128.0 mg/L.

In the data set on MT2 cells, `NCC1OC(OC2C(CO)OC(OC3C(O)C(N)CC(N)C3OC3OC(CN)C(O)C(O)C3N)C2O)C(N)C(O)C1O` (stereo not shown) [Neomycin] showed a Cytotoxicity greater than 300 µM. The MIC in the data set with Strep. Pyogenes (gr. A) was 16 µg/mL and 17.6 µM; in data set [1], 64 µg/mL and 70.4 µM; with P. aeruginosa R17093, 211.22 µM (≈ 130 µg/mL); with P. aeruginosa R17093 (Pseudomonas aeruginosa, R17093) it was 211 µM and 192 µg/mL; in data set [2], 128 µg/mL and 141 µM; in data set [3] it was 1 µg/mL and 1.1 µM. In addition, the MIC in data set [4] is 0.25 µg/mL and 0.28 µM; with E. Coli-ESBL negative, 1 µg/mL and 1.1 µM; in the data set with E. Coli-ESBL positive, 4 µg/mL and 4.4 µM; in the data set with Serratia marcescens, 1 µg/mL and 1.1 µM; in data set [5], 128 µg/mL and 141 µM; in data set [6], 3 µg/mL and 3.3 µM. Also, the MIC in [7] was 106 µM and 96 µg/mL; in data set [8] it was 3 µg/mL and 3.3 µM; in the data set with A. baumannii R16998 it was 32 µg/mL and 35.2 µM.

As to D-Arg-9-mer-neomycin [Compound 14], in the data set with A. baumannii E11436, the “Minimum Inhibitory Concentration” value was 64.0 mg/L.
